Source: patent publication US11365177B2, “Chemical uncouplers of respiration and methods of use thereof” (Dana-Farber Cancer Institute, Inc., priority 2017, dated 2022)
Where two headings read alike, the source gives them in different places. Peptide text beside a SMILES is read from it. * marks the point of attachment. Oleoyl = CCCCCCCC/C=C\CCCCCCCC(=O)*

Test system: C2C12 cells
Assay: Measurement of cellular respiration (Seahorse), uncoupling bioactivity
Assay type: cell-based
Settings: Mus musculus, 50 μM compound, maximal increase versus basal oligomycin-treated respiration, means SEM, n=3-6/group, read-out: % stimulation of respiration (baseline = 100%)
Method: Oligomycin was purchased from EMD Millipore, and FCCP and rotenone were purchased from Sigma. C2C12 cells were seeded at 35,000 cells/well in an XF24 cell culture microplate (V7-PS, Seahorse Bioscience) and analyzed the following day. On the day of analysis, the cells were washed once with Seahorse respiration buffer (8.3 g/l DMEM, 1.8 g/l NaCl, 1 mM pyruvate, 20 mM glucose, pen/strep), placed in 0.5 ml Seahorse respiration buffer, and incubated in a CO2-free incubator for 1 h. Port injection solutions were prepared as follows (final concentrations in assay in parentheses): 10 μM oligomycin (1 μM final), 500 μM indicated compound (50 μM final), 2 μM FCCP (0.2 μM final), and 30 μM rotenone (3 μM final). The Seahorse program was run as follows: basal measurement, 3 cycles; inject port A (oligomycin), 3 cycles; inject port B (compounds), 8 cycles; inject port C (FCCP), 3 cycles; inject port D (rotenone), 3 cycles. Each cycle consisted of mix 2 min, wait 0 min, and measure 2 min. For data expressed as a percentage of oligomycin-treated basal, the respiration at cycle 6 was normalized to 100%, and the maximum respiration at any time point between cycles 7 and 15 inclusive was used.
Tables 1-4 show uncoupling bioactivity of compounds of the disclosure with different fatty acid side chains. Respiration in C2C12 cells is shown as maximal increases versus basal oligomycin-treated respiration, which is normalized to 100%. Data are shown as means SEM, n=3-6/group.

[1] = Table 3, various fatty acid side chains

Structure (SMILES) | activity at 50 µM (Table 2, various head groups) | activity at 50 µM [1] | further results
CCCCCCCC/C=C\CCCCCCCC(=O)N[C@@H](CCC(N)=O)C(=O)O [Compound 6, Oleoyl-L-glutamine] | 164 ± 4% |  | 
CCCCCCCCCCCCCCCCCC(=O)N[C@@H](Cc1ccccc1)C(=O)O [Compound 16, Stearoyl-L-phenylalanine] |  | 148 ± 12% | 
CCCCCCCCCCCCCCCC(=O)N[C@@H](Cc1ccccc1)C(=O)O [Compound 15, Palmitoyl-L-phenylalanine] |  | 180 ± 20% | 
CCCCCCCC/C=C\CCCCCCCC(=O)N[C@@H](Cc1ccccc1)C(=O)O [Compound 1, Oleoyl-L-phenylalanine] | 161 ± 12% |  | 
CCCCCC/C=C\CCCCCCCCCC(=O)N[C@@H](Cc1ccccc1)C(=O)O [Compound 23, (Z)-Octadec-11-enoyl-L-phenylalanine] |  | 115 ± 8% | 
CCCCCCCC/C=C\CCCCCCCC(=O)N1CCC[C@H]1C(=O)O [Compound 7, Oleoyl-L-proline] | 182 ± 7% |  | 
CCCCCCCC/C=C\CCCCCCCC(=O)NCCc1ccccc1 [Compound 3, N-phenethyloleamide] | 104 ± 4% |  | 
CCCCCCCC/C=C\CCCCCCCC(=O)N[C@@H](CCCCN)C(=O)O [Compound 9, Oleoyl-L-lysine] | 108 ± 4% |  | 
CCCCCCCC/C=C\CCCCCCCC(=O)N1c2ccccc2C[C@H]1C(=O)O [Compound 35, (S)-1-Oleoylindoline-2-carboxylic acid] |  |  | activity at 50 µM (Table 5, cyclic head groups): 146 ± 5%
CCCCCCCC/C=C/CCCCCCCC(=O)N[C@@H](Cc1ccccc1)C(=O)O [Compound 21, (E)-Octadec-9-enoyl-L-phenylalanine] |  | 107 ± 3% | 
CC/C=C\C/C=C\C/C=C\C/C=C\C/C=C\C/C=C\CCC(=O)N[C@@H](Cc1ccccc1)C(=O)O [Compound 27, ((4Z,7Z,10Z,13Z,16Z,19Z)-Docosa-4,7,10,13,16,19-hexaenoyl)-L-phenylalanine] |  | 166 ± 11% | 
CCCCCCCC/C=C\CCCCCCCC(=O)NCC(=O)NCC(=O)O [Compound 12, Oleoylglycylglycine] (Oleoyl-Gly-Gly-OH) | 206 ± 32% |  | 
CCCCCCCC/C=C\CCCCCCCC(=O)N[C@@H](CC(C)C)C(=O)O [Compound 4, Oleoyl-L-leucine] | 178 ± 13% |  | 
CCCCCCCC/C=C\CCCCCCCC(=O)N[C@H](Cc1ccccc1)C(=O)O [Compound 2, Oleoyl-D-phenylalanine] | 173 ± 9% |  | 
CCCCCCCC/C=C\CCCCCCCC(=O)N1CCc2ccccc2C1C(=O)O (stereo not drawn) [Compound 32, 2-Oleoyl-1,2,3,4-tetrahydroisoquinoline-1-carboxylic acid] |  |  | activity at 50 µM (Table 5, cyclic head groups): 216 ± 17%
CCCCCCCC/C=C\CCCCCCCC(=O)N[C@H](C(=O)O)[C@@H](C)CC [Compound 5, Oleoyl-L-isoleucine] | 167 ± 14% |  | 
CCCCCCCCCCCC(=O)N[C@@H](Cc1ccccc1)C(=O)O [Compound 14, Dodecanoyl-L-phenylalanine] |  | 96 ± 4% | 

Structure (SMILES) | activity at 50 µM (Table 2, various head groups) | activity at 50 µM [1] | further results
CC/C=C\C/C=C\C/C=C\C/C=C\C/C=C\CCCC(=O)N[C@@H](Cc1ccccc1)C(=O)O [Compound 26, ((5Z,8Z,11Z,14Z,17Z)-Icosa-5,8,11,14,17-pentaenoyl)-L-phenylalanine] |  | 259 ± 43% | 
CCCCCCCC/C=C\CCCCCCCC(=O)N[C@@H](Cc1ccc(O)cc1)C(=O)O [Compound 10, Oleoyl-L-tyrosine] | 105 ± 13% |  | 
CCCCCCCC/C=C\CCCCCCCC(=O)N1CCCC[C@H]1C(=O)O [Compound 30, (S)-1-Oleoylpiperidine-2-carboxylic acid] |  |  | activity at 50 µM (Table 5, cyclic head groups): 174 ± 3%
CCCCCCCCCCC/C=C\CCCCC(=O)N[C@@H](Cc1ccccc1)C(=O)O [Compound 22, (Z)-Octadec-6-enoyl-L-phenylalanine] |  | 110 ± 12% | 
CCCCCCCC/C=C\CCCCCCCCNC(=O)NCC(=O)O [Compound 28, (Z)-(Octadec-9-en-1-ylcarbamoyl)glycine] |  |  | activity at 50 µM (Table 4, urea analogs): 104 ± 3%
CCCCCCCCCCCCCCCCCCCC(=O)N[C@@H](Cc1ccccc1)C(=O)O [Compound 17, Icosanoyl-L-phenylalanine] |  | 95 ± 8% | 
CCCCC/C=C\C/C=C\C/C=C\C/C=C\CCCC(=O)N[C@@H](Cc1ccccc1)C(=O)O [Compound 25, ((5Z,8Z,11Z,14Z)-Icosa-5,8,11,14-tetraenoyl)-L-phenylalanine] |  | 200 ± 12% | 
CCCCCCCC/C=C\CCCCCCCC(=O)N1Cc2ccccc2C[C@H]1C(=O)O [Compound 31, (S)-2-Oleoyl-1,2,3,4-tetrahydroisoquinoline-3-carboxylic acid] |  |  | activity at 50 µM (Table 5, cyclic head groups): 187 ± 19%
CCCCC/C=C\C/C=C\CCCCCCCC(=O)N[C@@H](Cc1ccccc1)C(=O)O [Compound 19, ((9Z,12Z)-Octadeca-9,12-dienoyl)-L-phenylalanine] |  | 218 ± 10% | 
CCCCCCCCCCCCCCCCCCCCCC(=O)N[C@@H](Cc1ccccc1)C(=O)O [Compound 18, Docosanoyl-L-phenylalanine] |  | 100 ± 3% | 
CCCCCCCC/C=C\CCCCCCCC(=O)NCCC(=O)O [Compound 13, 3-Oleamidopropanoic acid] | 185 ± 10% |  | 
CCCCCCCC/C=C\CCCCCCCC(=O)N[C@@H](CCC(=O)O)C(=O)O [Compound 11, Oleoyl-L-glutamic acid] | 106 ± 7% |  | 
CCC/C=C\C/C=C\C/C=C\CCCCCCC(=O)N[C@@H](Cc1ccccc1)C(=O)O [Compound 20, ((8Z,11Z,14Z)-Octadeca-8,11,14-trienoyl)-L-phenylalanine] |  | 109 ± 12% | 
CCCCCCCC/C=C\CCCCCCCCNC(=O)N[C@@H](Cc1ccccc1)C(=O)O [Compound 29, (Z)-(Octadec-9-en-1-ylcarbamoyl)-L-phenylalanine] |  |  | activity at 50 µM (Table 4, urea analogs): 97 ± 5%
CCCCCCCC/C=C\CCCCCCCC(=O)N[C@@H](Cc1c[nH]c2ccccc12)C(=O)O [Compound 8, Oleoyl-L-tryptophan] | 147 ± 9% |  | 
CCCCCCCC/C=C\CCCCCCCCCC(=O)N[C@@H](Cc1ccccc1)C(=O)O [Compound 24, (Z)-Icos-11-enoyl-L-phenylalanine] |  | 103 ± 3% | 
